The record followed here is US7323466B2, “Morpholine derivatives as 5HT2C receptor agonists for the treatment of obesity” (Hoffman-La Roche Inc., priority 2005, dated 2008).

Structures are written as SMILES. Where two headings read alike, the source gives them in different places.

In assay [1] the target is T1, 5-HT2A receptor (Homo sapiens, UniProt P28223). The assay is described as follows: Functional activity, FLIPR calcium assay, CHO cells expressing human 5-HT2A. In kind it is cell-based. Also on record: expressed in transfected cells; host or cells: CHO cells. Particulars: for EC50: FLIPR, CHO cells, Fluo-3-AM, read-out: h5-HT2A EC50; for h5-HT2A Rel. Eff.: maximum fluorescent signal relative to 10 μM 5-HT (defined as 100%). On the procedure:
(§1) The functional activity of compounds of formula (I) was assayed using a Fluorimetric Imaging Plate Reader (FLIPR). CHO cells expressing the human 5-HT2C or human 5-HT2A receptors were counted and plated into standard 96 well microtitre plates on the day before testing to give a confluent monolayer. The cells were then loaded with the calcium sensitive dye, Fluo-3-AM. Unincorporated dye was removed using an automated cell washer to leave a total volume of 100 μL/well of assay buffer (Hanks balanced salt solution containing 20 mM Hepes and 2.5 mM probenecid). The drug (dissolved in 50 μL of the assay buffer) was added at a rate of 70 μL/sec to each well of the FLIPR 96 well plate during fluorescence measurements. The measurements were taken at 1 sec intervals and the maximum fluorescent signal was measured (approx 10-15 secs after drug addition) and compared with the response produced by 10 μM 5-HT (defined as 100%) to which it was expressed as a percentage response (relative efficacy). Dose response curves were constructed using Graphpad Prism (Graph Software Inc.).

For assay [2], the target named is T1, 5-HT2A receptor. Kind of assay: Binding to the 5-HT2A receptor, [125I]-DOI, CHO cell line (Method (c)). Also on record: expressed in transfected cells; host or cells: CHO cell line. On the procedure:
(§2) The binding of compounds of formula (I) to serotonin receptors was determined in vitro by standard methods. The preparations were investigated in accordance with the assays given hereinafter.
Method (c): For the binding to the 5-HT2A receptor the 5-HT2A receptors were radiolabeled with [^125I]-DOI. The affinity of the compounds for 5-HT2A receptors in a CHO cell line was determined according to the procedure of D. J. McKenna and S. J. Peroutka, J. Neurosci., 1989, 9, 3482-90.

For assay [3], the target named is T2, 5-HT2C receptor (Homo sapiens, UniProt P28335).
T2 sequence (P28335 33-458): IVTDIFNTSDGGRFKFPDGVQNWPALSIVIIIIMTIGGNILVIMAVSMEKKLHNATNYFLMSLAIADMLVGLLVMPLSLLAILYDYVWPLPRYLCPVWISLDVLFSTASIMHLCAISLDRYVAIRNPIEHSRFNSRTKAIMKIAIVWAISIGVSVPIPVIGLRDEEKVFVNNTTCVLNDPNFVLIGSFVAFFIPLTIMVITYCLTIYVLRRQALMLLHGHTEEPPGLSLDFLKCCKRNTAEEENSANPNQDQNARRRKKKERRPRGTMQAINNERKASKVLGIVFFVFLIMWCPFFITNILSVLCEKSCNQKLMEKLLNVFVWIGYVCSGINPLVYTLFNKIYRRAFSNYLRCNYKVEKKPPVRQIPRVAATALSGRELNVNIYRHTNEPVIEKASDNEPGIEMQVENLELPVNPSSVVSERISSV
The assay is described as follows: Functional activity, FLIPR calcium assay, CHO cells expressing human 5-HT2C. Set-up: expressed in transfected cells; host or cells: CHO cells. Conditions: for h5-HT2C Rel. Eff.: maximum fluorescent signal relative to 10 μM 5-HT (defined as 100%). In kind it is cell-based. On the procedure:
as §1

The target of assay [4] is T3, human 5-HT2B receptors (Homo sapiens, UniProt P41595).
T3 construct: expressed in transfected cells; host or cells: CHO cell line
The assay is described as follows: Binding to the 5-HT2B receptor, [3H]-5-HT, CHO cell line (Method (b)). On the procedure:
as §2
Method (b): For the binding to the 5-HT2B receptor the 5-HT2B receptors were radiolabeled with [^3H]-5-HT. The affinity of the compounds for human 5-HT2B receptors in a CHO cell line was determined according to the procedure of K. Schmuck, C. Ullmer, P. Engels and H. Lubbert, FEBS Lett., 1994, 342, 85-90.

Assay [5] addresses T2, 5-HT2C receptor. The assay is described as follows: Binding to the 5-HT2C receptor, [3H]-5-HT, CHO cell line (Method (a)). Also on record: expressed in transfected cells; host or cells: CHO cell line. On the procedure: as §2
Method (a): For the binding to the 5-HT2C receptor the 5-HT2C receptors were radiolabeled with [^3H]-5-HT. The affinity of the compounds for 5-HT2C receptors in a CHO cell line was determined according to the procedure of D. Hoyer, G. Engel and H. O. Kalkman, European J. Pharmacol., 1985, 118, 13-23.

Where [6] appears, read: Method (c), [125I]-DOI, CHO cell line, read-out: Ki (2A).
[7] abbreviates: FLIPR, CHO cells, Fluo-3-AM, read-out: h5-HT2C EC50.
[8] abbreviates: Method (b), [3H]-5-HT, human 5-HT2B, CHO cell line, read-out: Ki (2B).
Where [9] appears, read: Method (a), [3H]-5-HT, CHO cell line, read-out: Ki (2C).

T3 sequence (P41595 whole entry): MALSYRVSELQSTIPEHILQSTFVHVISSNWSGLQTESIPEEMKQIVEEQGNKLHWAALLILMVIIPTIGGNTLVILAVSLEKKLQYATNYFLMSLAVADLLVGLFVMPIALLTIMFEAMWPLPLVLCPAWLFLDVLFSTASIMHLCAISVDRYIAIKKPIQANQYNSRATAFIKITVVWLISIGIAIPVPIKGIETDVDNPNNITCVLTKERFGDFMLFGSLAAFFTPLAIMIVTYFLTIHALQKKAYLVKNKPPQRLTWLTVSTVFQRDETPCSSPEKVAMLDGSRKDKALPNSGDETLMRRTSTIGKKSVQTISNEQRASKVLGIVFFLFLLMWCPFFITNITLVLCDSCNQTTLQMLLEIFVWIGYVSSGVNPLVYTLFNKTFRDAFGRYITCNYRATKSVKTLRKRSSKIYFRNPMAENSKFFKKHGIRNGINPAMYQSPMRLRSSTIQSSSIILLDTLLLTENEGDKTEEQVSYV
T1 sequence (P28223 whole entry): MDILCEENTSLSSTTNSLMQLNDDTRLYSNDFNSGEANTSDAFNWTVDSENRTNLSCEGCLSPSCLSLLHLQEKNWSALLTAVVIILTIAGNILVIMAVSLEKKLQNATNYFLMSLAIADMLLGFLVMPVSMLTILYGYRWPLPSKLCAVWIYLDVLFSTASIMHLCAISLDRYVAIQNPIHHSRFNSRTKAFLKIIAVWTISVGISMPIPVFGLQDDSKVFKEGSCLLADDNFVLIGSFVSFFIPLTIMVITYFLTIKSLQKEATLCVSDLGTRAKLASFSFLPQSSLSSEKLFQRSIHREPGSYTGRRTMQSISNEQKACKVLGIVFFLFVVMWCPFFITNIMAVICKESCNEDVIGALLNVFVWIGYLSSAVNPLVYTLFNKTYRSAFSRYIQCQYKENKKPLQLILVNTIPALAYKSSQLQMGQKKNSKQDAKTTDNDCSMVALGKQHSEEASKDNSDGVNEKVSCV

For `c1ccc(C[C@@H]2CNCCO2)cc1` [reference compound], the EC50 in assay [1] and in assay [3] was more than 3000 nM in each case. The “h5-HT2A Rel. Eff.” value in assay [1] was 2%. For the same compound, the inhibition constant Ki in assay [2] was more than 10000 nM; in assay [4], more than 10000 nM; in assay [5], 169 nM. Also, the “h5-HT2C Rel. Eff.” value in assay [3] is recorded as 41%.

Consider `FC(F)(F)c1cccc(C[C@@H]2CNCCO2)c1` [Example 14, (R)-2-(3-trifluoromethyl)benzylmorpholine], for which the EC50 in assay [1] worked out at 511 nM; in assay [3] (setting [7]) it was 7 nM. Besides, the “h5-HT2A Rel. Eff.” value in assay [1] is recorded as 47%. Besides, the inhibitory constant (Ki) stood at 89 nM in assay [2] (setting [6]), 55 nM in assay [4] (setting [8]) and 10 nM in assay [5] (setting [9]). Besides, the “h5-HT2C Rel. Eff.” value in assay [3] came to 97%.

Take `COc1c(C)cc(C[C@@H]2CNCCO2)cc1Br` [Example 46, (R)-2-(3-bromo-4-methoxy-5-methyl-benzyl)morpholine]: the EC50 in assay [1] is more than 3000 nM; in assay [3] (setting [7]), 53 nM. In addition, the “h5-HT2A Rel. Eff.” value in assay [1] is on record as 21%. For the same compound, the Ki in assay [2] (setting [6]) is 641 nM; in assay [4] (setting [8]), more than 10000 nM; in assay [5] (setting [9]), 82 nM. Also, in assay [3], the “h5-HT2C Rel. Eff.” value worked out at 94%.

As usually defined, the EC50 is the concentration at which the effect is half-maximal. A word on the Ki: it is a dissociation constant, usually derived from enzyme kinetics or from competition with a known ligand.
